Patent publication US20250114389A1, “NUCLEOSIDES AND NUCLEOTIDES ANALOGS AS ANTIVIRAL AGENTS” (Emory University, priority 2021, published 2025)
Read-outs that look alike come from different tables or passages of the source.

Experiments:
Type in all cases: cell-based
SARS-CoV2 variant Delta [1] = experiment: microbe, parasite or virus in culture
SARS-CoV2 variant Delta [2] = experiment: microbe, parasite or virus in culture; remark: listed apart in the source
SARS-CoV2 Lineage A (Wa) [3] = experiment: Antiviral activity against SARS-CoV2 Lineage A (Wa) in Calu3
SARS-CoV2 variant Beta [4] = experiment: microbe, parasite or virus in culture
SARS-CoV2 variant Alpha [5] = experiment: microbe, parasite or virus in culture
SARS-CoV2 variant Gamma [6] = experiment: microbe, parasite or virus in culture
SARS-CoV2 variant Beta [7] = experiment: microbe, parasite or virus in culture; remark: listed apart in the source
SARS-CoV2 variant Gamma [8] = experiment: microbe, parasite or virus in culture; remark: listed apart in the source
SARS-CoV2 Lineage A (Wa) [9] = experiment: Antiviral activity against SARS-CoV2 Lineage A (Wa) in Vero
[10] = test system: SARS-CoV2 Lineage A (Eng); experiment: Antiviral activity against SARS-CoV2 Lineage A (Eng) in Calu3
SARS-CoV2 variant Alpha [11] = experiment: microbe, parasite or virus in culture; remark: listed apart in the source
[12] = Severe acute respiratory syndrome coronavirus 2, Calu-3, Calu3, read-out: Antiviral Activity Against SARS-CoV2 Variants in Calu3, first value column
[13] = Severe acute respiratory syndrome coronavirus 2, Vero, read-out: Antiviral Activity Against SARS-CoV2 Variants in Vero, first value column
[14] = Severe acute respiratory syndrome coronavirus 2, Calu-3, read-out: Antiviral Activity Against SARS-CoV2 Variants in Calu3, first value column

| SMILES | Antiviral Activity Against SARS-CoV2 Variants in Calu3, second value column (SARS-CoV2 variant Delta [1]) | Antiviral Activity Against SARS-CoV2 Variants in Vero (SARS-CoV2 variant Delta [2]) | Antiviral Activity Against SARS-CoV2 Variants in Calu3, second value column (SARS-CoV2 Lineage A (Wa) [3]) | Antiviral Activity Against SARS-CoV2 Variants in Calu3, second value column (SARS-CoV2 variant Beta [4]) | Antiviral Activity Against SARS-CoV2 Variants in Calu3, second value column (SARS-CoV2 variant Alpha [5]) | Antiviral Activity Against SARS-CoV2 Variants in Vero (SARS-CoV2 variant Beta [7]) | Antiviral Activity Against SARS-CoV2 Variants in Vero (SARS-CoV2 variant Gamma [8]) | Antiviral Activity Against SARS-CoV2 Variants in Vero (SARS-CoV2 Lineage A (Wa) [9]) | Antiviral Activity Against SARS-CoV2 Variants in Calu3, second value column [10] | Antiviral Activity Against SARS-CoV2 Variants in Vero (SARS-CoV2 variant Alpha [11]) | other results |
| --- | --- | --- | --- | --- | --- | --- | --- | --- | --- | --- | --- |
| N#C[C@@]1(n2ccc(N)nc2=O)O[C@H](CO)[C@@H](O)[C@H]1O [Compound A, (2R,3R,4S,5R)-2-(4-amino-2-oxopyrimidin-1(2H)-yl)-3,4-dihydroxy-5-(hydroxymethyl)-tetrahydrofuran-2-carbonitrile] | 0.1 µM | 0.3 µM | 4.5 µM | 1.2 µM | 0.4 µM | 1.4 µM | 1.0 µM | 0.4 µM | 3.6 µM | 1.2 µM | EC50 (SARS-CoV2 variant Delta [1]; [12]): 40 nM; EC50 (SARS-CoV2 variant Delta [2]; [13]): 200 nM; EC50 (SARS-CoV2 Lineage A (Wa) [3]; [14]): 1700 nM; EC50 (SARS-CoV2 variant Beta [4]; [12]): 300 nM; EC50 (SARS-CoV2 variant Alpha [5]; [12]): 100 nM; Antiviral Activity Against SARS-CoV2 Variants in Calu3, second value column (SARS-CoV2 variant Gamma [6]): 1.2 µM; EC50 (SARS-CoV2 variant Gamma [6]; [12]): 1100 nM; EC50 (SARS-CoV2 variant Beta [7]; [13]): 300 nM; EC50 (SARS-CoV2 variant Gamma [8]; [13]): 800 nM; EC50 (SARS-CoV2 Lineage A (Wa) [9]; Severe acute respiratory syndrome coronavirus 2, read-out: Antiviral Activity Against SARS-CoV2 Variants in Vero, first value column): 200 nM; EC50 [10, 14]: 1800 nM; EC50 (SARS-CoV2 variant Alpha [11]; [13]): 800 nM |
| CCC(CC)COC(=O)[C@H](C)N[P@](=O)(OC[C@H]1O[C@@](C#N)(c2ccc3c(N)ncnn23)[C@H](O)[C@@H]1O)Oc1ccccc1 [Remdesivir, reference compound] | 0.3 µM | 2.1 µM | 0.3 µM | 0.4 µM | 0.4 µM | 1.6 µM | 2.2 µM | 2.9 µM | 2.3 µM | 0.6 µM | – |
